Test results taken from US7744933B2, “Use of unsaponifiable components of vegetable oils for preparing a cosmetic and related treatments” (Laboratories Expanscience, priority 1998, dated 2010).

Tested on: PAI-1
Assay: 35S-methionine radiolabelling for the synthesis of PAI-1 in chondrocytes (SDS-PAGE, fluorography)
Format: cell-based, bovine
Settings: 24 hours; Piasclédine 300 10 μg/ml or TGF-β1 1 ng/ml; cell+matrix fraction
Description: The chondrocytes are isolated from calf cartilages as described in the article by Benya et al. (“The progeny of articular chondrocytes synthesize collagen types I and II trimer, but not type II. Verification by cyanogen bromide peptide analysis”, Biochemistry 1977; 16: 865-872). Primary cultures of chondrocytes are used in order to minimize the phenotypic changes. The cultures are plated at the rate of 6.0×10^6 cells per 175-cm^2 dish (for the extraction of RNA), at the rate of 5.0×10^6 cells per well in 6-well plates (9.6 cm^2) (for the labelling of PAI-1) and at the rate of 1.2×10^6 cells in 100-mm Petri dishes (transfection). […]
The confluent cultures in 6-well plates (9.6 cm^2) are labelled with [^35S]methionine (40 μCi/nil, Arnersham, France) in the presence of Piasclédine 300® (10 μg/nil) and TGF-β1 (1 ng/ml) for 24 hours. […] The band at 46 kD is determined to correspond to PAI-1 by previous immunoblotting using a rabbit polyclonal anti-PAI-1 antibody (Dako, Copenhagen, Denmark) as described in the article by Laiho M et al., reference cited above.
It was observed that the medium contained only minor quantities of newly-synthesized PAI-1. […]

## TGF-β1: transforming growth factor β1 protein, 1 ng/ml, marketed by R & D Systems, used as positive control
  PAI-1 fraction (synthesis of PAI-1) versus control cultures: significantly greater
